Reference: US12239132B2, “Compounds and methods for increasing soil nutrient availability” (SOUND AGRICULTURE COMPANY, priority 2018, dated 2025)

tested on: Bacillus megaterium; assay: Phosphate solubilization assay with Bacillus megaterium (liquid NBRIP, malachite green); format: cell-based; conditions: 25 ug/mL (solvent 50% acetone), NBRIP, 72 h
Protocol: In some aspects, a compound disclosed herein, e.g., AB09, stimulates bacterial phosphate solubilization activity. […] Cultures of B. megaterium were grown in media containing only insoluble phosphorus with and without a compound such as AB09. At the start of the experiment, there was no detectable difference of orthophosphate levels in the growth media alone and media supplemented with B. megaterium and/or AB09. Orthophosphate was measured after 72 hours of bacterial growth. Specifically, A 5 mL culture of B. megaterium was seeded from a single colony into Nutrient Broth (NB) and grown overnight in a 30° C. shaker. The cell pellet was collected by centrifugation, washed twice and resuspended in water. The concentration of B. megaterium was measured using a Nanodrop OD600 reading. B. megaterium was inoculated into liquid NBRIP media, which contains insoluble tricalcium phosphate as its sole phosphorus source. The final concentration of B. megaterium in the NBRIP media was OD600=0.02 ([…]). NBRIP media was supplemented with ML in a 1% DMSO solution to a final concentration of 100 ug/ML or 1% DMSO (both were filter sterilized through a 0.2 uM filter). Cell counts at the start of the experiment (0 hours) and at 72 hours post inoculation were measured using dilution plating. At the experiment start and after 72 hours of growth, 1 mL of culture was collected from the culture tubes. The supernatant was collected by centrifugation (5 min at 13,000 rpm). The cleared supernatant was diluted […] in molecular grade water and used for orthophosphate analysis. The remaining 4 mL of supernatant were collected by centrifugation for pH readings. Orthophosphate was measured using the malachite-green phosphate method (BioAssay Systems Malachite Green Phosphate Assay Kit Catalog No: POMG-25H). Briefly, the sample is mixed with a solution of Malachite Green and molybdate, which forms a green complex with free orthophosphate from the sample. Data are quantified on a plate reader at 620 nm. Unknown samples were run with a standard curve of known concentrations of orthophosphate. […] Phosphate solubilization in NBRIP culture media is shown at experiment start (0 h) and after 72 hours of shaking at 30° C. The left axis corresponds to box plots and whisker plots of the concentration of solubilized phosphate in the bacterial supernatant. The right axis corresponds to the pH of the supernatant. n=7 culture tubes for each B. megaterium with and without ML, and n=3 culture tubes for no bacteria with and without AB09. The malachite green phosphate assay was performed in triplicate. […] In some instances, disclosed herein are experimental culture tubes of B. megaterium growing in NBRIP without ML (AB09; leftmost two tubes) and with 100 ug/mL ML (right three tubes).
A strain of Bacillus megaterium (B. megaterium) was isolated from Iowa field soil and confirmed its ability to solubilize phosphorus by observing a cleared zone (or halo) around B. megaterium colonies when grown on solid media (NBRIP+Agar) containing only in insoluble form of phosphorus, Ca3(PO4)2. Cultures of B. megaterium were then grown in liquid NBRIP (containing only insoluble Ca3(PO4)2) with and without AB09. The growth media supernatant was analyzed for orthophosphate at the start of the experiment (0 h) and after 72 hours of growth by the malachite green quantification method.
FIG. 1A illustrates phosphate solubilization in NBRIP culture media at experiment start (0 h) and after 72 hours of shaking at 30° C. The left axis corresponds to box plots and whisker plots of the concentration of available phosphate (orthophosphate) in the bacterial supernatant. […] The malachite green phosphate assay was performed in triplicate. FIG. 1B illustrates an example of experimental culture tubes of B. megaterium growing in NBRIP without AB09 (leftmost two tubes) and with 100 ug/mL AB09 (right three tubes). […]

| SMILES | phosphate solubilization effect compared to the original AB09 molecule |
| --- | --- |
| CCc1occc(=O)c1OC1C=C(C)C(=O)O1 (stereo not drawn) [SA-005] | did not differ from AB09 |
| CC1=C(C)C(Oc2c(C)occc2=O)OC1=O (stereo not drawn) [SA-002] | enhanced phosphate solubilization effect |
| CC1=CC(Oc2cc(C)oc(=O)c2)OC1=O (stereo not drawn) [SA-004] | enhanced phosphate solubilization effect |
